The structures appear in SMILES notation.

A short description of series [1]: (§1) Intrinsic clearance in human liver microsomes. Type of series: ADME, Microsome. The settings on record: liver microsomes.
The subject of another series is Rattus norvegicus. The experiment in a line: Volume of distribution at steady state in rat at 0.3 mg/kg, […]. Type of series: ADME, organism-based. The arrangement: dose 0.3 mg/kg. The settings on record: in vivo.
In series [2] the target is Voltage-gated inwardly rectifying potassium channel KCNH2 (Homo sapiens, UniProt Q12809). The experiment in a line: Inhibition of human ERG potassium channel up to 22 uM.
Series [3] addresses T1, Alpha-1B adrenergic receptor (Homo sapiens, UniProt P35368).
T1 sequence (P35368 whole entry): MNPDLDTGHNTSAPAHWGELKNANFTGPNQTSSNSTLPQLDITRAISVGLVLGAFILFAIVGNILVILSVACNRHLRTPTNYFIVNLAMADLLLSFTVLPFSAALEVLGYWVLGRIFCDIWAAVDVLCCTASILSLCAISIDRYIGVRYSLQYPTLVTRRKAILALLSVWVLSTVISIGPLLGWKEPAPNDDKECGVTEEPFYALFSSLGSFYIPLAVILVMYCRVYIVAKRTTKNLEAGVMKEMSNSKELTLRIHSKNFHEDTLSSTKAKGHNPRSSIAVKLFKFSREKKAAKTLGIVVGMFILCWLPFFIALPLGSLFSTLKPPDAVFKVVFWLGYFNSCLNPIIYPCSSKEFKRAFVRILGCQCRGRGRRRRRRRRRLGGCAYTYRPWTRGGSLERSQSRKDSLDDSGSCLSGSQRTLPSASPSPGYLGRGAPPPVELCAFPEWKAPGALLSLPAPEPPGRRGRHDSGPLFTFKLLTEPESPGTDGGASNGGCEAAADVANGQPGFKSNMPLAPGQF
The experiment in a line: Agonist activity at human cloned adrenergic Alpha-1B receptor expressed in CHO cells assessed as calcium mobilization by FLIPR. Type of series: functional, cell-based.

Series [4] in a line: Clearance in rat at 0.3 mg/kg, […]. Type of series: ADME, organism-based. On the set-up: dose 0.3 mg/kg. The following applies: in vivo.
The target of series [5] is T2, Alpha-1A adrenergic receptor (Homo sapiens, UniProt P35348).
T2 sequence (P35348 whole entry): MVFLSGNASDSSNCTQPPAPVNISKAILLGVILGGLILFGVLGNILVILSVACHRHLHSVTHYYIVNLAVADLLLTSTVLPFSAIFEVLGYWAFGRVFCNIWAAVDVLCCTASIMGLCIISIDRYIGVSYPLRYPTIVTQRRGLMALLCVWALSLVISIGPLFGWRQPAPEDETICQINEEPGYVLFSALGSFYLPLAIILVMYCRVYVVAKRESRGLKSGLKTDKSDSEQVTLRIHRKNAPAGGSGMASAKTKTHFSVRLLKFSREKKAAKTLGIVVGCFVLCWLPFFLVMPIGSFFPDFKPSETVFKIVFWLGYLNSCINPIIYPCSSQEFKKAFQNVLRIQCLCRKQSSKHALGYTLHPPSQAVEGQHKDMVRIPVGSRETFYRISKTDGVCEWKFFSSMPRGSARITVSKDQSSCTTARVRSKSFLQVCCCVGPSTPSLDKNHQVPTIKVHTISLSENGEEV
The experiment in a line: Agonist activity at human cloned adrenergic alpha1A receptor expressed in CHO cells assessed as calcium mobilization by FLIPR. Type of series: functional, cell-based. Background: A change in cytosolic calcium serves as a functional read-out for many receptors and channels.

A short description of series [6]: Solubility in buffer solution at pH 1 to 9. Type of series: physicochemical.
Series [7] is described as follows: Membrane permeability by PAMPA assay. Type of series: ADME. The following applies: read-out: Papp. For orientation: In PAMPA a lipid-coated filter parts donor from acceptor wells.
For series [8], the target named is T3, Alpha-1D adrenergic receptor (Homo sapiens, UniProt P25100).
T3 sequence (P25100 whole entry): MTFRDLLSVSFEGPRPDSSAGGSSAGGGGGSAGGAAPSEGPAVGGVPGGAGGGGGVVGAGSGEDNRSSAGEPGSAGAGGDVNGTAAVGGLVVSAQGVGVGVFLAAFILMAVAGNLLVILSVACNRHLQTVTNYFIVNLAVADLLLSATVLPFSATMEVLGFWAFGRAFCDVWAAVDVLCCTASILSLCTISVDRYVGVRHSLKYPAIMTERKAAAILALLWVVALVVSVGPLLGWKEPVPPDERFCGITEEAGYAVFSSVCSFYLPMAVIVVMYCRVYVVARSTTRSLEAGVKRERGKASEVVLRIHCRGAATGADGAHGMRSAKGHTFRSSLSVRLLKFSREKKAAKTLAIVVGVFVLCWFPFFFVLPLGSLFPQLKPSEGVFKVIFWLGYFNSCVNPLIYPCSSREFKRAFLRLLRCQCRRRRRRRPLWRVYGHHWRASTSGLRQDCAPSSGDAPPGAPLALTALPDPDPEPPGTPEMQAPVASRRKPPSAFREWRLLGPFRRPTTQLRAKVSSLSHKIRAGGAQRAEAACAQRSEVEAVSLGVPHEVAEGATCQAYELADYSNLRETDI
The experiment in a line: Agonist activity at human cloned adrenergic Alpha-1D receptor expressed in CHO cells assessed as calcium mobilization by FLIPR. Type of series: functional, cell-based.

A short description of series [9]: Partition coefficient, log D at pH 7.4. The settings on record: octanol/water, pH 7.4, logD.
The test system of a further series is Liver microsomes. Described as §1. Type of series: ADME, Microsome. The settings on record: microsomes.
Series [10] has as its target T4, Alpha-2A adrenergic receptor (Homo sapiens, UniProt P08913).
T4 sequence (P08913 whole entry): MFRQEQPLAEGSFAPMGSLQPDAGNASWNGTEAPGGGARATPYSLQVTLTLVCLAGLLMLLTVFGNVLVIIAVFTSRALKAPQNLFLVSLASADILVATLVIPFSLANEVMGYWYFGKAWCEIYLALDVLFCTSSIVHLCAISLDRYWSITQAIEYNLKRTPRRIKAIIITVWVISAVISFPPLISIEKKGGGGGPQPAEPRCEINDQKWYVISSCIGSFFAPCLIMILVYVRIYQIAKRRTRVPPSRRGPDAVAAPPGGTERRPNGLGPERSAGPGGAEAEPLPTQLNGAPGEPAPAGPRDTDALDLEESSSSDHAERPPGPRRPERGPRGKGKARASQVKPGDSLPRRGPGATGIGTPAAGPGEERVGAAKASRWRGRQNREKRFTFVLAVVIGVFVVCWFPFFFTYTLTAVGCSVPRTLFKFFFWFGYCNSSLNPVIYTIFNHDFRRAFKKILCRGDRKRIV
Briefly: Agonist activity at human cloned adrenergic alpha2A receptor expressed in CHOK1 cells by beta-lactamase reporter gene assay. Type of series: functional, cell-based, CHO-K1. The following applies: cho-k1. (In general: In a reporter assay the amount or activity of a reporter protein is the signal.)

Sequence of Voltage-gated inwardly rectifying potassium channel KCNH2 (Q12809 whole entry): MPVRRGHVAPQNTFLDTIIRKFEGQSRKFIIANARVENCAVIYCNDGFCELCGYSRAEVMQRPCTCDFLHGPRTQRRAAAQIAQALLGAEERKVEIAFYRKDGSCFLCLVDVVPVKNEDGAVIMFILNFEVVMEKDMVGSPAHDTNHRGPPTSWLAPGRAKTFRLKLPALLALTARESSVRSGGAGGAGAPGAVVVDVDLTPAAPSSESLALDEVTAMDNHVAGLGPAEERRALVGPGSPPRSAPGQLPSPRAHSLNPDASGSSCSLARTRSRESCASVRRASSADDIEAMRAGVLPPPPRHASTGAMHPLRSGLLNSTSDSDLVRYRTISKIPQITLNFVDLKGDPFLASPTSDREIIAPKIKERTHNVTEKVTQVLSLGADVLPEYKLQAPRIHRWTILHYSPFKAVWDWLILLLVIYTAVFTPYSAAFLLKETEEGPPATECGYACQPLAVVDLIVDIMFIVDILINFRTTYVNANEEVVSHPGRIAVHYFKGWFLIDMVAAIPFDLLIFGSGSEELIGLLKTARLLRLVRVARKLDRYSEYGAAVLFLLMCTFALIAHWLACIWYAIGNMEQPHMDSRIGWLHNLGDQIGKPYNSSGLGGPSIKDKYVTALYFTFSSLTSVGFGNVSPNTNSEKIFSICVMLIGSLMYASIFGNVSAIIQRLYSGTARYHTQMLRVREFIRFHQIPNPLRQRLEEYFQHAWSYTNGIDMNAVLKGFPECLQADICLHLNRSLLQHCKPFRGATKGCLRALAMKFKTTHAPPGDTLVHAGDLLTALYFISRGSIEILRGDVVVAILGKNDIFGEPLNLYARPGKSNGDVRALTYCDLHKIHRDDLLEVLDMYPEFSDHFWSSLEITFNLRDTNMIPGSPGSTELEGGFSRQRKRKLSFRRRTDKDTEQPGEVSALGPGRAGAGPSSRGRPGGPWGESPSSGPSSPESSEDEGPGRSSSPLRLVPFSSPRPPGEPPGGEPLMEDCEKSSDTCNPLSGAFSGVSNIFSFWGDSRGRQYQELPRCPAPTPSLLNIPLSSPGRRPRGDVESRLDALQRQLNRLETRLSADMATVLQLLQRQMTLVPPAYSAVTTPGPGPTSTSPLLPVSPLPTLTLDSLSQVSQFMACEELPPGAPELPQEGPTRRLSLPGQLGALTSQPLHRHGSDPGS

One may read the microsomal CLint as the capacity of the preparation to metabolise the compound, expressed as a volume cleared per time. For orientation: EC50 means the concentration giving half of the maximal effect. A word on the CL/F: it is the apparent clearance, not corrected for the fraction that reaches the circulation. A word on the solubility: it is how much of the substance goes into solution per volume. Read a low solubility as a poorly soluble substance. As a reminder, the Papp is a coefficient for how fast a substance crosses the barrier. The term logD denotes lipophilicity at a set pH, counting ionised and neutral species. In series [1], `N#Cc1ccccc1C1Cc2nccn2C1` (configuration not stated) showed a microsomal CLint of less than 7 µL/min/mg. Besides, the Vdss in the series on Rattus norvegicus stood at 1.5 L/kg. For the same compound, the Activity entry in series [2] was “Not Active”. Also, the EC50 in series [3] is greater than 10 µM; in [5] it was 0.051 µM; in series [8], greater than 10 µM. In addition, the CL/F in [4] turned out to be 34 mL/min/kg. For the same compound, the solubility in series [6] was greater than 500 µg/mL. For the same compound, the Papp in series [7] came to 23 ×10⁻⁶ cm/s. In series [9], this compound had a logD of 1.3.

`c1ccc(C2Cc3nccn3C2)cc1` (single isomer, unassigned; enantiomer 1) showed a CL with Liver microsomes of 15 µL/min/mg. For the same compound, the EC50 in series [3] (cho) is greater than 10 µM; in [5], 0.073 µM; in [8], 7.36 µM; in series [10], greater than 10 µM. Also, the Papp in series [7] amounted to 51 ×10⁻⁶ cm/s. The logD in series [9] was 1.9.

Source of the values: ChEMBL document CHEMBL1136872, “Potent and selective alpha1A adrenoceptor partial agonists--novel imidazole frameworks” (Bioorg Med Chem Lett, 2009).
